Earlier results as cited in patent publication US10806143B2, “Herbicidal composition in granular form” (priority 2009, dated 2020).

Conditions: at 20° C.

## CCOC(=O)C(Cl)Cc1cc(-n2nc(C)n(C(F)F)c2=O)c(F)cc1Cl (stereo not shown) [carfentrazone-ethyl, ethyl 2-chloro-3-[2-chloro-5-(4-difluoromethyl-3-methyl-5-oxo-4,5-dihydro-[1,2,4]triazol-1-yl)-4-fluorophenyl]propionate]
  water solubility: 22 milligrams per liter
